These results are taken from patent publication US12357924B2, “Process for producing enriched fraction from Bacopa monnieri extract for management of neurodegenerative disorders” (STAR HI HERBS PVT LTD, priority 2021, dated 2025).

Experiment [1] relates to MES induced convulsion. In words: Maximal electroshock induced seizures (MES) model. It is filed as in vivo, albino Wister rats. On the procedure:
(§1) In further embodiment of the present invention the anticonvulsant activity of Bacopa monnieri extract Bacosane is determined using Pentylenetetrazole (PTZ) and the maximal electroshock seizure (MES) models. The analysis is performed on healthy Swiss mice of either sex, weighing about 25-30 g and Wistar rats of either sex, weighing about 150-200 g. The animals were grouped and housed in polyacrylic cages (38×23×10 cm) with not more than six animals per cage and maintained under standard laboratory conditions (temperature 25° C.) with dark and light cycle (12/12 h). All the animals were acclimatized to laboratory condition for a week before commencement of the analysis. The animals were randomly allocated into four groups of six each: Group I (control group), Group II, Group III, Group IV.
Group-I received 10 ml/kg of 1% NaCMC p.o. which served as control.
Group-II received phenytoin sodium (25 mg/kg, orally) as standard controls in MES method and PTZ induced seizures method respectively.
Group-III and IV were administered two graded doses of Bacopa monnieri extract Bacosane i.e., 50 mg/kg and 100 mg/kg, respectively, p.o.
In the above analysis the percentage protection of animals was recorded as percentage of reduction in duration of seizures wherein the control group is assumed as 100%. The observations of group II, III and IV were compared with control Group-I. It is observed that Bacopa monnieri extract Bacosane has potential anticonvulsant activity due to the presence of certain active phytoconstituents. The anticonvulsant activity of Bacopa monnieri extract Bacosane involves GABAergic transmission and glutaminergic transmission or sodium channel blockage. However, it can be considered that the Bacopa monnieri extract Bacosane as a potent anticonvulsant supplement. The analysis and observations of Pentylenetetrazole (PTZ) and the maximal electroshock seizure (MES) models is shown in FIG. 3 to FIG. 6.
FIG. 3 is the graphical representation of effect of Bacopa Monnieri extract Bacosane on tonic extension phase in MES induced convulsion. […]

In experiment [2] the test system is PTZ induced tonic-clonic convulsions. As to the kind of experiment: Pentylenetetrazole (PTZ) induced convulsions model. It is filed as in vivo, rats. The note with it: phenytoin sodium 25 mg/kg orally. The method, then:
as §1
Group-I received 10 ml/kg of 1% NaCMC p.o. which served as control. […]
In the above analysis the percentage protection of animals was recorded as percentage of reduction in duration of seizures wherein the control group is assumed as 100%. […]
FIG. 5 depicts graphical representation of effect of Bacopa Monnieri extract Bacosane on tonic-clonic convolution in Pentylenetetrazole (PTZ) induced model in rats. […] The onset of convulsions, number of animals that convulsed and number of animals that were protected from clonic convulsions were recorded.

The subject of experiment [3] is hippocampus. The note with it: sub-chronic and chronic administration, 30 mg/kg; cited from earlier work.
The test system of experiment [4] is behavior of rats in elevated plus maze. As to the kind of experiment: Elevated plus maze test. It is filed as in vivo, Wistar strain rats. The following applies: 5 minutes test; Bacosane 50 and 100 mg/kg p.o., diazepam 1 mg/kg; vs vehicle. The method, then:
(§2) In further embodiment of the present invention the anxiolytic effect of Bacopa monnieri extract Bacosane is determined by employing 4 different tests i.e., the elevated plus maze (EPM) test, open field test (OFT), […] test and Light dark transition test. The compounds used in these four tests comprises Bacopa monnieri extract Bacosane; and Diazepam (1 mg/kg, i.p.) which is used as standard anxiolytic agent. The four tests are performed on Wistar strain rats of both sex of weighing 130 to 180 g, which were divided into four groups of six rats each (Group I, Group II, Group III and Group IV)
(§3) Group I vehicle (normal saline) at a dose of 10 ml/kg body weight
(§4) Group II received Bacopa monnieri extract Bacosane, at a dose of 50 mg/kg body weight
(§5) Group III received Bacopa monnieri extract Bacosane, at a dose of 100 mg/kg body weight
(§6) Group IV received standard drug, diazepam 1 mg/kg body weight
FIG. 9 depicts comparison of effect of Bacopa monnieri extract Bacosane and diazepam in behavior of rats in elevated plus maze test. […] The percentage of time spent (duration) in open arms and frequency of open arm entries were counted for a period of 5 minutes. […] The percentage of time spent in the open arms and number of open arm entries were calculated using the formulas [100×open/(open+enclosed)] and (100×open/total entries), respectively.

In experiment [5] the test system is locomotor activity of the rats. As to the kind of experiment: Actophotometer method (locomotor activity). In kind it is in vivo, Wistar strain rats. The note with it: diazepam 1 mg/kg.
Protocol: In further embodiment of the present invention the anxiolytic effect of Bacopa monnieri extract Bacosane is determined by employing 4 different tests i.e., the elevated plus maze (EPM) test, open field test (OFT), Astrophotometer test and Light dark transition test. The compounds used in these four tests comprises Bacopa monnieri extract Bacosane; and Diazepam (1 mg/kg, i.p.) which is used as standard anxiolytic agent. The four tests are performed on Wistar strain rats of both sex of weighing 130 to 180 g, which were divided into four groups of six rats each (Group I, Group II, Group III and Group IV)
In this test, the rats are placed in the digital Actophotometer in which a constant beam of light from six lights will be made to fall on corresponding photoelectric cells. The photoelectric cells get activated when an animal crosses the beam of light and thereby cuts off (crossing) the rays of light falling on it. After 1 hour of Bacopa Monnieri extract Bacosane administration the numbers of crossings are counted for a period of 10 minutes by the actophotometer. […]
Experiment [6] relates to behavior of rats in open field. As to the kind of experiment: Open field test. It is filed as in vivo, Wistar strain rats. The following applies: 5 minutes; Diazepam 1 mg/kg, Bacosane 50 mg/kg and 100 mg/kg; vs normal saline. On the procedure: as §2, §3, §4, §5, §6
FIG. 11 depicts comparison of effect of Bacopa monnieri extract Bacosane and Diazepam on behavior of rats in open field test. The apparatus comprises a wooden box (60×60×60 cm). The area of the open field was divided into 16 squares (15×15 cm), the four inner squares in the center and 12 squares in the periphery along the walls. The other identical condition comprises of sound attenuated and dark experimental room. […]

The nature of experiment [7]: DPPH free radical scavenging assay. The note with it: 0.1 mM DPPH in methanol, 30 minutes, absorbance at 517 nm. It is filed as biochemical.
Protocol: The free radical scavenging activity of Bacopa monnieri extract Bacosane and BHT is determined through the process comprising steps of: preparing solution of 0.1 mM DPPH in methanol, and 1.5 mL of this solution was mixed with 1.5 mL of extract in methanol at different concentrations (50, 100, 150, 200 and 250 m/mL); and measuring the absorbance at 517 nm, after leaving the above mixture for 30 minutes of incubation at dark room. Butylated hydroxytoluene (BHT) was used as the reference standard at different concentrations (20, 40, 60, 80 and 100 m/m1). The radical scavenging activity of DPPH was calculated using the following equation: [A0-A1)/A0]×100 where A0 is the absorbance of the control, and A1 is the absorbance of the standard. Then the percentage (%) of inhibition was plotted against concentration of the Bacopa monnieri extract Bacosane and BHT, and from the graph as shown in FIGS. 7A-7B half-maximal inhibitory concentration (IC50) was calculated to determine the efficacy of Bacopa monnieri extract Bacosane in comparison to standard butylated hydroxytoluene (BHT).

For `O=C1NC(=O)C(c2ccccc2)(c2ccccc2)N1` [Phenytoin, phenytoin sodium], in experiment [1] (MES model, compared to control group), the “hind limb tonic extension” value was “decreased”. Moreover, in experiment [1] (MES model, phenytoin sodium 25 mg/kg orally), the extensor phase entry is recorded as “abolished the extensor phase completely”. Moreover, in experiment [1] (phenytoin sodium 25 mg/kg orally), the “protection in animals against MES” value is recorded as 100%. Besides, in experiment [2] (PTZ 90 mg/kg i.p., Bacosane 50 and 100 mg/kg orally), the “anticonvulsant effect (latency, onset of clonic convulsions, onset of tonic seizures)” value is “significantly anticonvulsant activity”. This compound also showed a protection in experiment [2] (PTZ model) of 100%.

With `C[C@H]1[C@H](C)CC[C@]2(C(=O)O)CC[C@]3(C)C(=CC[C@@H]4[C@@]5(C)C[C@@H](O)[C@H](O)[C@@](C)(CO)[C@@H]5CC[C@]43C)[C@H]12` [asiatic acid], in experiment [3], the “cell proliferation in the hippocampus” value is recorded as “increase” and the spatial working memory result is on record as “stimulate”.

`CN1C(=O)CN=C(c2ccccc2)c2cc(Cl)ccc21` [Diazepam]: in experiment [4], the “closed arm number of entries and time spent” value is listed as “significantly decreased”; the “percentage of number of open arm entries and time spent in open arm” value is “significant increase”. Also, the “number of crossings of light beams compared to control group” value in experiment [5] is recorded as “significantly reduced”. For the same compound, the “anxiolysis (increased ambulation, rearing and preening, decreased defecations)” value in experiment [6] is reported as “significantly exhibited anxiolysis”.

For the compound `Cc1cc(C(C)(C)C)c(O)c(C(C)(C)C)c1` [butylated hydroxytoluene (BHT), butylated hydroxytoluene], the “half-maximal inhibitory concentration (IC50), DPPH free radical scavenging” value in experiment [7] came to 150.50 µg/mL.
